In patent US20260223837A1, “NATURAL LIPID PARTICLE FORMULATIONS FOR AGRICULTURAL APPLICATIONS” (INVAIO SCIENCES, INC., priority 2023, published 2026):

Legend:
Tomato Horn Worm (THW) = assay: Tomato seedling root uptake assay followed by THW infestation; details: in vivo
Protocol: Tomato seeds (N=14) were germinated and grown on a precut mesh (0.08″×0.025″ Opening; Mcmaster-Carr, Cat #1100T45) in 20 ml 0.5×MS media ([…] filtered without sucrose added) in a deep petri dish (100 mm×25 mm). The petri dishes were placed in a plastic container (236 Oz) with holes on both sides of the container and 100 ml MilliQ water to maintain high humidity. The plastic containers with plants were placed in a Percival incubator (25° C., 50% relative humidity).
After 10 days, the mesh along with the seedlings on it was moved from the petri dish containing 0.5×MS media and excess media on mesh was dried by damping the roots on paper towels. The seedlings on the mesh were placed in a new deep petri dish containing formulation solution (20 ml) in the same large plastic container and Percival incubator. […] After 3 days, the mesh with seedlings was taken out of petri dish and the roots were washed with MilliQ water 2 times and placed on a paper towel to blot off excess water. […]
Five THW larvae were placed on the tomato seedlings on mesh in each petri dish and the petri dish was placed in a large plastic container (101 Oz). The insect mortality was scored after 2 days, and the mortality was normalized against negative control (water treatment) to calculate the % larval control.

fall army worms (FAW) = assay: Corn seedling root application, fall army worm infestation; assay type: in vivo; details: for plant mass / fresh weight: in vivo; for FAW mortality: two days post-infestation
Protocol: Two hundred corn seeds of the MBS Hybrid line are sterilized in 15% bleach sterilization solution by placing 50 seeds each in 4 separate 50 mL Falcon tubes and adding 25 mL sterilization solution into each tube. The tubes containing seeds are shaken on an orbital shaker at low speed for 15 min, after which the seeds are rinsed 3 times with sterile MilliQ water in the biological safety cabinet to ensure sterility. Six seeds are then selected from each tube and placed into CYG germination pouches (PhytoAB ca #CYG-38 LB) with 50 ml of sterile DI water. Seeds are allowed to germinate in the dark for 3 days at 25° C. and 60% relative humidity. After 3 days seedlings are moved to climate-controlled chambers with a light: dark cycle of 16:8 at 25° C. and 60% RH. At this time 25 ml of treatment solutions suspended in Hoagland's solution (Sigma-Alderich H2395-1L, 1.3 g/L, pH 6.5) are added to germination pouches. […] Seedlings are allowed to grow and uptake solution for 3 days before FAW infestation.
Six-day-old plants are infested with non-diapausing FAW at a rate of two 2nd instar larvae per plant. […] Before infestation germination pouches are sealed to prevent FAW from making direct contact with nutrient and NLP solutions. FAW are then allowed to feed on plants for a duration of 2 days in a Percival incubator (25° C., 50% RH, 16:8 Light: dark cycle).
FAW mortality is scored two days post-infestation by removing larvae from plants and probing 3 times. Larvae that are unresponsive to probing or not recovered are considered dead and the proportion of surviving larvae over initial infestation numbers are compared across treatments. Plant mass is also recorded by weighing individual seedlings after larvae are removed and average mass of seedlings are compared across treatments.

[1] = UV stability assay of deltamethrin in NLPs; assay type: physicochemical
Text: In addition, the four NLP formulations were also mixed with lignosulfonate (Borresperse NA, Borregaard), a widely used UV absorption agent at 3% final concentration, ten samples were exposed to UV light, and ten represented control samples that were not exposed to UV light.
For the samples to be exposed to UV exposure, the cap of the Eppendorf tube was removed, and a single layer of Saran wrap (SC Johnson) was pulled across the top and secured with a rubber band. For the control samples, the Eppendorf tube was capped and wrapped entirely in aluminum foil to completely block UV radiation.
All samples were placed 15 cm below the UV light (Hortilux PowerVEG Full Spectrum with UV Bulb, Growershouse, Cat #901678) with the UV radiation intensity at round 150 milliwatts per square centimeter (mW/cm^2). For each treatment, two samples were analyzed by LC-MS at t=0 (immediately after preparation), at day 1, day 2, day 3, and day 6. For each timepoint two UV samples and 2 control samples were removed for analysis by LC-MS/MS. Prior to analysis, the samples were diluted to 1 ml with methanol in the original 2 mL Eppendorf tubes. A further 100× dilution was performed in methanol and the samples were transferred to HPLC vials for analysis by LC-MS.

WCRW [2] = assay: Small scale (green house 10 inch pot) in-furrow assay and dose-response; assay type: in vivo, western corn rootworm (WCRW); details: 2 mg/ml DE, in-furrow 3 ml, day 28
Protocol: Jumbo cotton balls were packed into the bottom of 10″ tall and 2.7″ diameter cylindrical containers. Wide straws were inserted for later use during the infestation process, then packed with ~660 g of silt loam soil. Soil was then watered with about 150 ml of water in three 50 ml increments 24 hrs before planting. A hole was made at a depth of 1.5 inch from the top of the soil. […] The particle size, PDI and zeta potential of these NLPs are similar to those prepared with 80 ug/ml of DE in the suspension (Table 8). The treatments were added around the edge of the hole for planting. A seed was then planted in the hole and covered with soil. Containers with seeds were then placed in the greenhouse to continue growing for 7 days until ready for infestation.
2nd instar WCRW larvae were shipped from the supplier (Crop Characteristic Inc., Farmington, MN USA) and stored at 10° C. until ready for use (less than a week). The 1st and 2nd infestations were conducted 7 and 14 days after seed planting, respectively. For each infestation, approximately 10 larvae were transferred to 0.5 ml microcentrifuge tube and released into soil via dropping the tube with the open mouth facing down into straws inserted when the pots were filled with soil. […]
The fresh weight for each whole seedling was measured using a scale and recorded.

WCRW [3] = assay: Field-scale in-furrow treatment, open field trial (Example 53); assay type: in vivo, western corn rootworm (WCRW); details: 2 mg/ml
[4] = test system: Colorado Potato Beetle (CPB); assay: Tomato seedling root uptake assay followed by CPB infestation; details: 160 ug/ml in DCM
Fusarium oxysporum = assay: Resazurin based Fusarium inhibition assay; assay type: cell-based; details: 24 hr incubation, compared to negative controls (DMSO)
Protocol: The purpose of this assay was to quantify the effect of encapsulation of AZO, an antifungal agent, in NLP particles on its efficacy against a fungal pathogen (e.g., Fusarium oxysporum). Encapsulated AZO was compared to unencapsulated counterparts to determine if there is any change in efficacy. Formulations were tested in a 96-well plate and incubated with F. oxysporum conidia (spores) for 24 hr, after which resazurin dye was added. After 4 hr of incubation the color change of resazurin from blue to a fluorescent pink due to fungal respiration was assessed spectrophotometrically and the percent inhibition of respiration, as a measure of fungal growth, was determined by comparison to a conidia-only negative control. […] Fusarium oxysporum was cultured on 50% potato dextrose broth (PDB) agar plates. Using a pipette tip, a small mycelium aliquot was transferred to a 50-mL flask containing carboyxymethyl cellulose medium (CMC). […] Conidia were counted in the resuspended pellet using a hemocytometer, and diluted to 1×10^6 conidia/mL in 20% glycerol solution, from which a 1×10^5 conidia/mL working solution was prepared. […] After 24 h, 10 μL of PrestoBlue reagent was added to each well of the plate, followed by 4 h incubation, after which the fluorescence was read at 570/620 nm with a read height of 7 mm.

tomato hornworm (THW) = assay: Tomato seed priming, tomato hornworm infestation; assay type: in vivo; details: seed priming 24 hr
Protocol: Tomato seeds are surface-sterilized by 1 ml 25% Bleach with 0.025% Triton X-100 in 1.5 ml centrifuge tube, then washed 3 times with 1 ml sterile water. Tomato seeds (N=50) are primed in 0.3 ml of below treatment solutions in a 1.5 ml centrifuge tube for 24 hr.
The primed tomato seeds (N=14) are germinated and grown on a precut mesh (0.08″×0.025″ Opening; Mcmaster-Carr) in 20 ml half strength Murashige and Skoog Basal Medium (MP Bio, Cat #0926231—CF) in a deep petri dish (100 mm×25 mm). The petri dishes are placed in large plastic container (236 Oz) with holes on both sides of the container and 100 ml MilliQ water to maintain high humidity. The containers are placed in a Percival incubator (about 25° C., 50% relative humidity). After 10 days, the mesh along with the seedlings on it is moved from the petri dish containing half strength MS media and excess media on mesh is dried by damping the roots on paper towels. After 3 days, the mesh with seedlings is removed from the petri dish and the roots are washed twice with MilliQ water and placed on paper towel to blot off excess water. The mesh with tomato seedlings is transferred to a new petri dish with 25 ml of 1% Phytagel (P8169-1 KG, Sigma-Aldrich). […]
The insect mortality is scored after 2 days, and the mortality is normalized against negative control (water treatment) to calculate the % larval control.

whiteflies = assay: Tomato seedling root treatment, whitefly exposure; assay type: in vivo; details: after 7 days
Protocol: Tomato seeds (N=14) are germinated and grown on a precut mesh (0.08″×0.025″ Opening; Mcmaster-Carr, Cat #1100T45) in 20 ml ½ MS media ([…] filtered without sucrose added) in a deep petri dish (100 mm×25 mm). The petri dishes are placed in a large plastic container (Sistema; 236 Oz) with holes on both sides of the container and 100 ml MilliQ water to maintain high humidity. Large plastic containers are placed in a Percival incubator (25° C., 50% RH). After 10 days, the mesh along with the seedlings on it is moved from the petri dish containing half strength MS media, and excess media on mesh is dried by blotting the roots on paper towels. […] After 3 days, the mesh with seedlings is taken out of petri dish and the roots are washed with MilliQ water 2 times and placed on a paper towel to blot off excess water. The mesh with tomato seedlings is transferred to a new petri dish with 25 ml of 1% phytogel (P8169-1 KG, Sigma-Aldrich).
From a whitefly infested plant in a rearing cage, leaves that are infested with about 200 white flies are excised using scissors and placed in a petri dish. The petri dish is placed at the base of the tomato plants on the phytagel taking care to not damage the tomato plant roots. The boxes with the tomato plant and the whiteflies are placed in an incubator with 16 h light/8 hr dark photoperiod, 26° C. and 50% humidity. […]

Compound | phytotoxicity (Tomato Horn Worm (THW)) | plant mass / fresh weight (fall army worms (FAW)) | FAW mortality (fall army worms (FAW)) | Repeat 1 (deltamethrin concentration) ([1]; Repeat 1, initial concentration, LC-MS) [µg/mL] | Repeat 2 (deltamethrin concentration) ([1]; Repeat 2, initial concentration, LC-MS) [µg/mL] | deltamethrin retention rate (actual deltamethrin/input deltamethrin) ([1]; after 6 days of UV exposure (figure legend)) [%] | Initial deltamethrin Concentration ([1]; mean of Repeat 1 and 2, LC-MS at t=0, before UV exposure) [µg/mL] | protection of whole plant mass and root mass from WCRW (WCRW [2]) | root injury rating (0 to 3) (WCRW [3]) | phytotoxicity to tomato seedlings [4] | minimum amount required for >90% inhibition of Fusarium (Fusarium oxysporum) [µg/mL] | insect mortality and stunting (tomato hornworm (THW)) | number of live whiteflies (whiteflies)
CC1(C)[C@H](C(=O)O[C@H](C#N)c2cccc(Oc3ccccc3)c2)[C@@H]1C=C(Br)Br [Deltamethrin] | phytotoxicity (wilting and chlorosis of plant tissue) | fresh weight comparable to the water treated plants | none or very low mortality | 104 | 114 | 15 | 109 | less effective in protecting whole plant mass | higher root damage than the NLP644 comprising deltamethrin at 2 mg/ml treatment | caused phytotoxicity to the tomato seedlings |  |  | 
CO/C=C(/C(=O)OC)c1ccccc1Oc1cc(Oc2ccccc2C#N)ncn1 [azoxystrobin] |  |  |  |  |  |  |  |  |  |  | 5 |  | 
CN/C(=N\[N+](=O)[O-])NCc1cnc(Cl)s1 [clothianidin] |  | plant mass is the highest | FAW mortality is the highest |  |  |  |  |  |  |  |  | significantly higher mortality and stunting | significantly lower
